We go through 8 molecules from PubChem BioAssay (NCI).

Test systems include IGROV1 ovarian; NCI-H460 lung; SK-OV-3 ovarian; HS 578T breast; HCC-2998 colon; A549 NSCLC; NCI/ADR-RES ovarian; HCT-15 colon; UACC-257 melanoma; K-562 leukemia; EKVX NSCLC; CCRF-CEM leukemia; HOP-92 NSCLC; CAKI-1 renal; MDA-MB-231 breast; SF-539 CNS; BT-549 breast.
Assay in all cases: NCI tumour cell line growth inhibition, 48 h

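In this assay, cells in 96-well plates receive the compound at five concentrations for 48 hours. Endpoints are linearly interpolated between the surrounding concentrations. TGI: total growth inhibition.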

In the case of `Clc1ccc(OCC2NC3CCC2CC3)cn1` (centres undefined), the TGI in the assay on IGROV1 ovarian is greater than 100 µM; with NCI-H460 lung, 55.1 µM; with SK-OV-3 ovarian, greater than 100 µM; in the assay with HS 578T breast, greater than 100 µM; with HCC-2998 colon, 32.5 µM; in the assay on A549 NSCLC it was greater than 100 µM. Moreover, the TGI in the assay with NCI/ADR-RES ovarian is greater than 100 µM; with HCT-15 colon, 45.5 µM; with UACC-257 melanoma it was 36 µM; with K-562 leukemia, 41.4 µM; with EKVX NSCLC it was 60.6 µM; with CCRF-CEM leukemia, 77 µM. For the same molecule, the TGI in the assay with HOP-92 NSCLC is greater than 100 µM; with CAKI-1 renal, greater than 100 µM; in the assay on MDA-MB-231 breast it was 47.8 µM; in the assay with SF-539 CNS, 38.5 µM; with BT-549 breast, greater than 100 µM.

As to `COC1=C(C(c2cc(OC)c(OC)c(OC)c2)c2cc3c(cc2OC)OCO3)C(=O)OC1` (centres undefined), the TGI was greater than 84.8 µM in the assay on IGROV1 ovarian; greater than 84.7 µM with NCI-H460 lung; greater than 78.6 µM with SK-OV-3 ovarian; greater than 58.4 µM with HS 578T breast; greater than 100 µM in the assay with HCC-2998 colon; greater than 67.1 µM with A549 NSCLC. In addition, the TGI is 26.2 µM with NCI/ADR-RES ovarian; greater than 100 µM in the assay with HCT-15 colon; greater than 100 µM in the assay with UACC-257 melanoma; greater than 100 µM in the assay on K-562 leukemia; greater than 81.6 µM in the assay on EKVX NSCLC; greater than 68.8 µM with CCRF-CEM leukemia. Moreover, the TGI in the assay with HOP-92 NSCLC is greater than 100 µM; in the assay on CAKI-1 renal, greater than 100 µM; with MDA-MB-231 breast, greater than 93.5 µM; in the assay with SF-539 CNS it was 41.2 µM; in the assay on BT-549 breast, greater than 100 µM.

Turning to `CC(C)(C)N(Cc1ccccc1)C(=O)/C=C\S(=O)c1ccccc1` (centres undefined), the TGI in the assay with IGROV1 ovarian was 17.8 µM; with NCI-H460 lung, 16 µM; in the assay on SK-OV-3 ovarian it was 19.9 µM; in the assay on HS 578T breast, 7.19 µM; with HCC-2998 colon it was 15.5 µM; in the assay with A549 NSCLC, 25.4 µM. Besides, the TGI in the assay on NCI/ADR-RES ovarian is 13.7 µM; in the assay with HCT-15 colon it was 18 µM; with UACC-257 melanoma it was 16.2 µM; in the assay with K-562 leukemia it was greater than 100 µM; with EKVX NSCLC, 24.1 µM; in the assay with CCRF-CEM leukemia it was greater than 44.9 µM. In addition, the TGI in the assay on HOP-92 NSCLC came to 10.8 µM; in the assay with CAKI-1 renal, 18.4 µM; in the assay on MDA-MB-231 breast, 11.8 µM; in the assay with SF-539 CNS, 9.67 µM; with BT-549 breast, 12.9 µM.

Turning to `Cc1cccc(Nc2nc3ccccc3nc2NS(=O)(=O)c2ccc(N)cc2)c1`, the TGI in the assay on IGROV1 ovarian is greater than 100 µM; in the assay on NCI-H460 lung it was greater than 100 µM; in the assay with SK-OV-3 ovarian, greater than 100 µM; in the assay with HS 578T breast, greater than 100 µM; with HCC-2998 colon, 67.6 µM; in the assay with A549 NSCLC, greater than 100 µM. Besides, the TGI in the assay on NCI/ADR-RES ovarian is greater than 100 µM; with HCT-15 colon it was greater than 100 µM; in the assay with UACC-257 melanoma it was greater than 100 µM; in the assay with K-562 leukemia, greater than 100 µM; in the assay on EKVX NSCLC, greater than 100 µM; in the assay with CCRF-CEM leukemia it was 57.6 µM. Moreover, the TGI in the assay on HOP-92 NSCLC was greater than 100 µM; with CAKI-1 renal, greater than 100 µM; in the assay on MDA-MB-231 breast it was greater than 100 µM; in the assay with SF-539 CNS, 93.9 µM; in the assay on BT-549 breast, greater than 100 µM.

As to `Cc1ccc2c(c1C)C(=O)C1(C2)Cc2ccc3c(c2C1=O)CCC3` (centres undefined), the TGI with IGROV1 ovarian, in the assay on NCI-H460 lung, in the assay on SK-OV-3 ovarian, in the assay with HS 578T breast, in the assay on HCC-2998 colon and in the assay with A549 NSCLC was greater than 100 µM throughout. Also, the TGI with NCI/ADR-RES ovarian, in the assay on HCT-15 colon, with UACC-257 melanoma, in the assay on K-562 leukemia, in the assay on EKVX NSCLC and with CCRF-CEM leukemia was greater than 100 µM throughout. Moreover, the TGI in the assay with HOP-92 NSCLC, in the assay on CAKI-1 renal, with MDA-MB-231 breast, in the assay on SF-539 CNS and in the assay on BT-549 breast was greater than 100 µM each time.

In the case of `COc1cccc(OC)c1C1ON=C(c2ccccc2)N1C12CC3CC(CC(C3)C1)C2` (centres undefined), the TGI in the assay on IGROV1 ovarian, in the assay with NCI-H460 lung, in the assay on SK-OV-3 ovarian, in the assay on HS 578T breast, in the assay on HCC-2998 colon and with A549 NSCLC was greater than 100 µM in each case. For the same molecule, the TGI was greater than 100 µM in the assay on NCI/ADR-RES ovarian; greater than 100 µM in the assay on HCT-15 colon; greater than 100 µM in the assay on UACC-257 melanoma; greater than 100 µM in the assay with K-562 leukemia; greater than 100 µM with EKVX NSCLC; 88.4 µM in the assay with HOP-92 NSCLC. The TGI in the assay with CAKI-1 renal, in the assay on MDA-MB-231 breast, in the assay on SF-539 CNS and with BT-549 breast was greater than 100 µM each time.

Regarding `CC(CN1NC12CCCC2)N1NC12CCCC2` (centres undefined), the TGI with IGROV1 ovarian, in the assay on NCI-H460 lung, in the assay with SK-OV-3 ovarian, with HS 578T breast, in the assay with HCC-2998 colon and in the assay on A549 NSCLC was greater than 100 µM in each case. The TGI in the assay on NCI/ADR-RES ovarian, with HCT-15 colon, with UACC-257 melanoma, with K-562 leukemia, with EKVX NSCLC and in the assay on CCRF-CEM leukemia was greater than 100 µM in each case. Besides, the TGI with HOP-92 NSCLC, in the assay with CAKI-1 renal, in the assay with MDA-MB-231 breast, in the assay with SF-539 CNS and with BT-549 breast was greater than 100 µM each time.

As for `CCCN(CCC)C(=S)Sc1nc(C)nc(N2CCN(c3nc(C)nc(SC(=S)N(CCC)CCC)c3[N+](=O)[O-])CC2)c1[N+](=O)[O-]`, the TGI in the assay on IGROV1 ovarian is 41 µM; with NCI-H460 lung, greater than 100 µM; in the assay with SK-OV-3 ovarian it was greater than 100 µM; in the assay with HS 578T breast it was greater than 100 µM; with HCC-2998 colon, 43.6 µM; with A549 NSCLC it was greater than 84.5 µM. Further, the TGI in the assay with NCI/ADR-RES ovarian is greater than 100 µM; with HCT-15 colon it was 32.1 µM; in the assay with UACC-257 melanoma, 54.2 µM; with EKVX NSCLC, greater than 83 µM; with CCRF-CEM leukemia, 8.55 µM; in the assay with HOP-92 NSCLC, 22.4 µM. The TGI in the assay with CAKI-1 renal was 34.4 µM; in the assay on MDA-MB-231 breast, 20.3 µM; in the assay with SF-539 CNS it was greater than 80.6 µM; in the assay on BT-549 breast, 26.9 µM.
